Literature values in patent US6262108A, “Medicinal use of cromoglycic acid compounds” (Kyoto Pharmaceutical Industries, Ltd., priority 1997, dated 2001).
Where a name gives a salt, the structure may show the parent alone.

Columns and labels:
[1] = system: contact dermatitis and atopic dermatitis; details: background statement on conventional antiallergic agents; cited from earlier work
[2] = system: type IV allergic reaction; details: background statement, postulated, with literature references; cited from earlier work

SMILES	therapeutic effects on contact dermatitis and atopic dermatitis [1]	type IV allergic reaction-inhibitory action [2]
COc1ccc(/C=C/C(=O)Nc2ccccc2C(=O)O)cc1OC [tranilast]	either ineffective or fail to show satisfactory therapeutic effects	failure to show a type IV allergic reaction-inhibitory action
Cc1ccc2c([nH]c(=O)c3c(=O)cc(C(=O)OCCC(C)C)oc32)c1C [repirinast]	either ineffective or fail to show satisfactory therapeutic effects	failure to show a type IV allergic reaction-inhibitory action
NC1=NCC2c3ccccc3Cc3ccccc3N12 (stereo not drawn) [epinastine hydrochloride]	either ineffective or fail to show satisfactory therapeutic effects	failure to show a type IV allergic reaction-inhibitory action
O=c1[nH]c2ccccc2n1CCCN1CCN(C(c2ccccc2)c2ccccc2)CC1 [oxatomide]	either ineffective or fail to show satisfactory therapeutic effects	failure to show a type IV allergic reaction-inhibitory action
Cc1cccn2c(=O)c(-c3nnn[nH]3)cnc12 [pemirolast potassium]	either ineffective or fail to show satisfactory therapeutic effects	failure to show a type IV allergic reaction-inhibitory action
CCOCCn1c(N2CCCN(C)CC2)nc2ccccc21 [emedastine difumarate]	either ineffective or fail to show satisfactory therapeutic effects	failure to show a type IV allergic reaction-inhibitory action
